Patent publication US20230391736A1, “3-TETRAZOLYLMETHYL-1,3,5-TRIAZIN-2,4-DIONE COMPOUND INHIBITING CORONAVIRUS 3CL PROTEASE ACTIVITY AND PREPARATION METHOD AND USE THEREOF” (priority 2022, published 2023)
pIC50: −log10 of the molar value. Read-outs that look alike come from different tables or passages of the source.

How the values were obtained:
SARS-CoV-2 3CL^pro = SARS-CoV-2 3CL^pro (Severe acute respiratory syndrome coronavirus 2 (2019-nCoV) (SARS-CoV-2), UniProt P0DTD1); assay: biochemical; conditions: for IC50 / pIC50: FRET; for IC50: class symbols, read-out: IC50 (nM), inhibitory activity against 3CL^pro; for pIC50: non-linear regression, read-out: IC50 against 3CL^pro
A549 cells = assay: In-vitro cytotoxicity by the MTT method, A549 cells; conditions: 24 hrs
Experimental: (§1) The in-vitro cytotoxicity of Compounds 1, 12, and 17 was evaluated by the MTT method. HepG2, HEK293 and A549 cells in logarithmic growth phase were respectively trypsinized into a cell suspension. The cell density was adjusted to 5×10^4 cells/mL. 180 μL per well of the cell suspension was inoculated into a sterile 96-well plate at 37° C., and cultured in an incubator at 5% CO2 for 24 hrs. After the cells were attached to the bottom of the plate, 20 μL of the drug solutions over the concentration gradients were respectively added into each well, and 6 replicate wells were set in parallel. Also, a blank group (group without cells and drug) and a control group (group without drug) were set. The system was incubated in an incubator at 37° C. and 5% CO2 for 24 hrs, and then 20 μL per well of a 5 g/L MTT solution was added and incubated for another 4 hrs. After the incubation was completed, the culture medium in the well was gently aspirated, and 100 μL of DMSO was added to each well. Then the crystal was fully dissolved in a shaker for 10 min at a low speed. After that, the absorbency of each well was measured at OD490 nm in an enzymelinked immunodetector, and the survival rate of cells was calculated.

HEK293 cells = assay: In-vitro cytotoxicity by the MTT method, HEK293 cells; conditions: 24 hrs
Experimental: as §1

HepG2 cells = assay: In-vitro cytotoxicity by the MTT method, HepG2 cells; conditions: 24 hrs
Experimental: as §1

SMILES: Cn1cc2cc(/N=c3\[nH]c(=O)n(Cc4nnn[nH]4)c(=O)n3Cc3ccccc3)c(Cl)cc2n1 [Compound 2, (E)-3-((1H-tetrazol-5-yl)methyl)-1-benzyl-6-((6-chloro-2-methyl-2H-indazol-5-yl)imino)-1,3,5-triazin-2,4-dione]
- IC50 (SARS-CoV-2 3CL^pro): 500 to 1000 nM

SMILES: CCn1nnnc1Cn1c(=O)[nH]/c(=N\c2ccc3nn(C)cc3c2)n(Cc2ccc([N+](=O)[O-])cc2)c1=O [Compound 19]
- IC50 (SARS-CoV-2 3CL^pro): 200 to 500 nM

SMILES: Cn1cc2cc(/N=c3\[nH]c(=O)n(Cc4nnn[nH]4)c(=O)n3Cc3ccc(Br)cc3)c(Cl)cc2n1 [Compound 6]
- IC50 (SARS-CoV-2 3CL^pro): 200 to 500 nM

SMILES: Cn1cc2cc(/N=c3\[nH]c(=O)n(Cc4nnnn4C)c(=O)n3Cc3cc(F)c(F)cc3F)c(Cl)cc2n1 [Compound 16]
- IC50 (SARS-CoV-2 3CL^pro): < 200 nM
- pIC50 (SARS-CoV-2 3CL^pro): > 6.70

SMILES: CCn1nnnc1Cn1c(=O)[nH]/c(=N\c2cc3cn(C)nc3cc2Cl)n(Cc2ccc(C(F)(F)F)cc2)c1=O [Compound 18]
- IC50 (SARS-CoV-2 3CL^pro): 200 to 500 nM

SMILES: Cn1cc2cc(/N=c3\[nH]c(=O)n(Cc4nnnn4C4CC4)c(=O)n3Cc3cc(F)c(F)cc3F)c(Cl)cc2n1 [Compound 21]
- IC50 (SARS-CoV-2 3CL^pro): 200 to 500 nM

SMILES: Cn1cc2cc(Nc3nc(=O)n(Cc4nnn[nH]4)c(=O)n3Cc3ccc(-c4ccccc4)cc3)c(Cl)cc2n1 [Compound 7, (E)-3-((1H-tetrazol-5-yl)methyl)-1-([1,1-biphenyl]-4-ylmethyl)-6-((6-chloro-2-methyl-2H-indazol-5-yl)imino)-1,3,5-triazin-2,4-dione]
- IC50 (SARS-CoV-2 3CL^pro): > 1000 nM

SMILES: Cn1cc2cc(/N=c3\[nH]c(=O)n(Cc4nnn[nH]4)c(=O)n3Cc3ccc(OC(F)(F)F)cc3)c(Cl)cc2n1 [Compound 11]
- IC50 (SARS-CoV-2 3CL^pro): 500 to 1000 nM

SMILES: Cn1cc2cc(/N=c3\[nH]c(=O)n(Cc4nnn[nH]4)c(=O)n3Cc3cc(F)c(F)cc3F)c(Cl)cc2n1 [Compound 1]
- IC50 (SARS-CoV-2 3CL^pro): < 200 nM
- pIC50 (SARS-CoV-2 3CL^pro): 6.92
- inhibition percentage of 3CL^pro (SARS-CoV-2 3CL^pro; concentration 0.1 nM): 0.86%
- inhibition percentage of 3CL^pro (SARS-CoV-2 3CL^pro; concentration 1 nM): 2.12%
- inhibition percentage of 3CL^pro (SARS-CoV-2 3CL^pro; concentration 5 nM): 7.77%
- inhibition percentage of 3CL^pro (SARS-CoV-2 3CL^pro; concentration 10 nM): 9.75%
- inhibition percentage of 3CL^pro (SARS-CoV-2 3CL^pro; concentration 20 nM): 14.30%
- inhibition percentage of 3CL^pro (SARS-CoV-2 3CL^pro; concentration 30 nM): 18.23%
- inhibition percentage of 3CL^pro (SARS-CoV-2 3CL^pro; concentration 50 nM): 21.89%
- inhibition percentage of 3CL^pro (SARS-CoV-2 3CL^pro; concentration 100 nM): 58.21%
- inhibition percentage of 3CL^pro (SARS-CoV-2 3CL^pro; concentration 500 nM): 73.44%
- inhibition percentage of 3CL^pro (SARS-CoV-2 3CL^pro; concentration 1000 nM): 89.12%
- Survival rate of A549 cells (A549 cells; 1.5625 nM): 98.18%
- Survival rate of A549 cells (A549 cells; 3.125 nM): 98.39%
- Survival rate of A549 cells (A549 cells; 6.25 nM): 98.23%
- Survival rate of A549 cells (A549 cells; 12.5 nM): 96.93%
- Survival rate of A549 cells (A549 cells; 25 nM): 96.16%
- Survival rate of A549 cells (A549 cells; 50 nM): 96.33%
- Survival rate of A549 cells (A549 cells; 100 nM): 95.75%
- Survival rate of A549 cells (A549 cells; 200 nM): 93.23%
- Survival rate of A549 cells (A549 cells; 400 nM): 92.19%
- Survival rate of HEK293 cells (HEK293 cells; 1.5625 nM): 95.07%
- Survival rate of HEK293 cells (HEK293 cells; 3.125 nM): 95.62%
- Survival rate of HEK293 cells (HEK293 cells; 6.25 nM): 93.10%
- Survival rate of HEK293 cells (HEK293 cells; 12.5 nM): 90.50%
- Survival rate of HEK293 cells (HEK293 cells; 25 nM): 88.23%
- Survival rate of HEK293 cells (HEK293 cells; 50 nM): 87.10%
- Survival rate of HEK293 cells (HEK293 cells; 100 nM): 82.87%
- Survival rate of HEK293 cells (HEK293 cells; 200 nM): 82.56%
- Survival rate of HEK293 cells (HEK293 cells; 400 nM): 80.83%
- Survival rate of HepG2 cells (HepG2 cells; 1.5625 nM): 97.17%
- Survival rate of HepG2 cells (HepG2 cells; 3.125 nM): 96.73%
- Survival rate of HepG2 cells (HepG2 cells; 6.25 nM): 95.83%
- Survival rate of HepG2 cells (HepG2 cells; 12.5 nM): 93.62%
- Survival rate of HepG2 cells (HepG2 cells; 25 nM): 90.15%
- Survival rate of HepG2 cells (HepG2 cells; 50 nM): 89.09%
- Survival rate of HepG2 cells (HepG2 cells; 100 nM): 85.37%
- Survival rate of HepG2 cells (HepG2 cells; 200 nM): 84.76%
- Survival rate of HepG2 cells (HepG2 cells; 400 nM): 82.33%

SMILES: Cn1cc2cc(/N=c3\[nH]c(=O)n(Cc4nnnn4C4CCC4)c(=O)n3Cc3cc(F)c(F)cc3F)c(Cl)cc2n1 [Compound 23]
- IC50 (SARS-CoV-2 3CL^pro): 500 to 1000 nM

SMILES: COc1ccc(Cn2c(=O)n(Cc3nnn[nH]3)c(=O)[nH]/c2=N\c2cc3cn(C)nc3cc2Cl)cc1 [Compound 10]
- IC50 (SARS-CoV-2 3CL^pro): 200 to 500 nM

SMILES: CC(C)n1nnnc1Cn1c(=O)[nH]/c(=N\c2cc3cn(C)nc3cc2Cl)n(Cc2cc(F)c(F)cc2F)c1=O [Compound 22]
- IC50 (SARS-CoV-2 3CL^pro): 200 to 500 nM
